Here are results for 13 molecules from US20250388602A1 (Genase Therapeutics B.V., priority 2022, published 2025).

The subject of series [1] is MOLM-13 cells. Put plainly: MOLM-13 cell viability (Assay B), Cell Titer-Glo. Format: cell-based. The note with it: Homo sapiens, read-out: IC50 MOLM13 inhibition activity. In outline:
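Cells at 1,000 per well in RPMI/10% FBS were exposed to compound (10E-5 to 6E-12 M), with or without 100 μM uridine, for 72 h. Viability was read by CellTiter-Glo luminescence. Duplicates were run, and potency was taken from two independent experiments.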
In general terms: Cellular ATP, detected with luciferase, serves as a proxy for viable cell number.

Series [2] addresses recombinant human DHODH (Homo sapiens (Human), UniProt Q02127). Put plainly: DHODH enzyme assay (Assay A), DCIP absorbance. The format is biochemical. The note with it: bins ≥10 nM-<100 nM and <10 nM; read-out: IC50 DHODH inhibition activity.
The nature of series [3]: in vitro. The note with it: for HLM % remaining: % remaining at 60 min, 1 μM; for half-life at 1 μM: both, human. As for the experimental part: Human Liver Microsomal metabolic stability: The microsomal metabolic stability assay utilized pooled human liver microsomes (mixed gender, BD Gentest), with supplemented cofactors NADPH and UDPGA (Solarbio S&T Co., LTD). Two separate experiments were performed as follows: • a) With cofactors (NADPH & UDPGA): 25 μL of 10 mM NADPH and 25 μL of 20 mM UDPGA were added to 197.5 μL of reaction solution (phosphate buffer (final concentration in assay 100 mM), MgCl2 (final concentration in assay (5 mM)), alamethacin (final concentration in assay 0.025 mg/mL) and microsomes (final concentration in assay 0.5 mg/mL). • b) Without cofactors (NADPH & UDPGA): 50 μL of H2O was added to 197.5 μL of reaction solution.
The mixture was pre-warmed at 37° C. for 10 minutes. The reaction was started with the addition of 2.5 μL of 100 μM control compound or test compound solutions. Diclofenac was used as positive control in this study. The final concentration of control compound and test compounds was 1 μM. Aliquots of 25 μL were taken from the reaction solution at 0.5, 5, 15, 30 and 60 minutes. The reaction was stopped by the addition of 5 volumes of cold acetonitrile containing internal standards. Samples were centrifuged at 3,220 g for 40 minutes. An aliquot of 100 μL of the supernatant was mixed with 100 μL of ultra-pure H2O and then used for LC-MS/MS analysis. Peak areas were determined from extracted ion chromatograms. Percent parent remaining was calculated from the area ratio of test compound. The slope value was determined by linear regression of the natural logarithm of percent parent remaining versus incubation time curve.
(§1) Peak areas were determined from extracted ion chromatograms to determine the in vitro half-life (t½) of parent compound by regression analysis of the percent parent disappearance vs. time curve. The in vitro half-life (in vitro t½) was determined from the slope value (in vitro t½=−0.693/k). All calculations were carried out using Microsoft Excel.

Series [4] is described as follows: in vitro. The note with it: for hHEPs % remaining: 1 μM. As for the experimental part: Human Hepatocyte metabolic stability: Human hepatocytes (X008000, BioIVT) were freshly thawed prior to the incubations with test compound. Hepatocytes were transferred to 50 mL conical tubes and centrifuged 10 min at 100 g. Thawing medium was removed and replaced by preheated (37° C.) incubation medium (William's E Medium supplemented with GlutaMAX), to yield a hepatocyte density ˜1.5×10^6 cells/mL. Cell viability was determined using AO/PI staining and hepatocytes were diluted using incubation medium to a working density of 0.5×10^6 viable cells/mL. 198 μL of hepatocytes were added into each well of a 96-well plate and placed in the incubator to allow the hepatocytes to warm for 10 minutes. 2 μL test compound or positive control was placed into respective wells of the 96-well plate (final concentration test compound 1 μM) to start the reaction. The plate was returned to the incubator and 25 μL aliquots of the well contents were removed at time points of 0, 15, 30, 60, 90 and 120 minutes. The aliquots were mixed with 6 volumes (150 μL) of acetonitrile containing internal standards (100 nM alprazolam, 200 nM caffeine, and 100 nM tolbutamide) to terminate the reaction. The plate was centrifuged for 20 minutes at 3,200 g. Aliquots of 150 μL of the supernatants were used for LC/MS/MS analysis. All incubations were performed in duplicate.
as §1

Where [5] appears, read: MOLM-13, 72 hours, bins ≥10 nM-<100 nM and <10 nM.

Like-named read-outs stand apart in the source and are kept apart here.

recombinant human DHODH, sequence (Q02127 whole entry): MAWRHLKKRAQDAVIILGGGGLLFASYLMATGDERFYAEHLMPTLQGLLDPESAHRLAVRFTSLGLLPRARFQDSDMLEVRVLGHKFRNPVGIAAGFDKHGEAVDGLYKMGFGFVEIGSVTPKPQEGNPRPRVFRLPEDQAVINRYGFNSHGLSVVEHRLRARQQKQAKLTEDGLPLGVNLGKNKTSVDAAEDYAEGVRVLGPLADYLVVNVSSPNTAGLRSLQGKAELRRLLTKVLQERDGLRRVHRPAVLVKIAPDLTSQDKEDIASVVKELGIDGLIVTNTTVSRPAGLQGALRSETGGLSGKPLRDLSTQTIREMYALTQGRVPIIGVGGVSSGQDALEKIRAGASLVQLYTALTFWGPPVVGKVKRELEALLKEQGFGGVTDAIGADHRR

Usually IC50 stands for the concentration at which inhibition is half-maximal. In general, half-life refers to how long it takes for the measured level to halve. A low value points to fast loss. On to `Cc1cccc(Cl)c1-n1ncc2c1COC[C@H]2NC(=O)c1ncn2c1CCCC2` [Ex-34, (S)—N-(1-(2-chloro-6-methylphenyl)-1,4,5,7-tetrahydropyrano[3,4-c]pyrazol-4-yl)-5,6,7,8-tetrahydroimidazo[1,5-a]pyridine-1-carboxamide], for which the IC50 in series [1] (MOLM-13, 72 h) is < 10 nM; in series [2], < 10 nM. This molecule displayed an HLM % remaining in series [3] of 100%. The half-life at 1 μM in series [3] (microsomes) was 5.62 h; in series [4] (human, hepatocytes), > 10 h. This molecule also showed a hHEPs % remaining in series [4] (% remaining at 120 min) of 100%.
In the case of `CCc1c(C(=O)N[C@@H]2COCc3c2cnn3-c2ccccc2F)ncn1C` [Ex-41, (S)-5-ethyl-N-(1-(2-fluorophenyl)-1,4,5,7-tetrahydropyrano[3,4-c]pyrazol-4-yl)-1-methyl-1H-imidazole-4-carboxamide], the 50% inhibitory concentration (IC50) in series [1] (setting [5]) and in series [2] was 10 to 100 nM in each case. In addition, the HLM % remaining in series [3] is 100%. Moreover, the half-life at 1 μM in series [3] (pooled liver microsomes) is > 6.08 h; in series [4] (human, hepatocytes), > 10 h. In series [4] (% remaining at 120 min), this molecule had a hHEPs % remaining of 100%.
Regarding `O=C(N[C@@H]1COCc2c1cnn2-c1c(F)cccc1Cl)c1n[nH]c2c1CCCC2` [Ex-46, (S)—N-(1-(2-chloro-6-fluorophenyl)-1,4,5,7-tetrahydropyrano[3,4-c]pyrazol-4-yl)-4,5,6,7-tetrahydro-1H-indazole-3-carboxamide], the half-inhibitory concentration (IC50) in series [1] (setting [5]) and in series [2] was 10 to 100 nM throughout. Further, in series [3], the HLM % remaining turned out to be 90%. Also, the half-life at 1 μM was > 6.08 h in series [3] (pooled liver microsomes) and > 10 h in series [4] (human, hepatocytes). Moreover, the hHEPs % remaining in series [4] (% remaining at 120 min) came to 89%.
Take `O=C(N[C@@H]1COCc2c1cnn2-c1c(F)cccc1Cl)c1ncc2n1CCCC2` [Ex-47, (S)—N-(1-(2-chloro-6-fluorophenyl)-1,4,5,7-tetrahydropyrano[3,4-c]pyrazol-4-yl)-5,6,7,8-tetrahydroimidazo[1,5-a]pyridine-3-carboxamide]: the IC50 in series [1] (setting [5]) and in series [2] was < 10 nM throughout. Besides, the HLM % remaining in series [3] amounted to 75%. The half-life at 1 μM in series [3] (pooled liver microsomes) was determined as 2.22 h; in series [4] (human, hepatocytes), 9 h. Moreover, the hHEPs % remaining in series [4] (% remaining at 120 min) was 84%.
For the molecule `Cc1cnc(C(=O)N[C@@H]2COCc3c2cnn3-c2c(F)cccc2Cl)cc1C` [Ex-48, (S)—N-(1-(2-chloro-6-fluorophenyl)-1,4,5,7-tetrahydropyrano[3,4-c]pyrazol-4-yl)-4,5-dimethylpicolinamide], the 50% inhibitory concentration (IC50) in series [1] (setting [5]) and in series [2] was 10 to 100 nM each time. In series [3], this molecule returned an HLM % remaining of 96%. Moreover, the half-life at 1 μM was 6.08 h in series [3] (pooled liver microsomes) and 5.97 h in series [4] (human, hepatocytes). Moreover, in series [4] (% remaining at 120 min), the hHEPs % remaining worked out at 82%.
With `O=C(N[C@@H]1COCc2c1cnn2-c1ccccc1Cl)c1ncn2c1CCCC2` [Ex-51, (S)—N-(1-(2-chlorophenyl)-1,4,5,7-tetrahydropyrano[3,4-c]pyrazol-4-yl)-5,6,7,8-tetrahydroimidazo[1,5-a]pyridine-1-carboxamide], the IC50 in series [1] (setting [5]) is < 10 nM; in series [2], 10 to 100 nM. The same molecule displayed an HLM % remaining in series [3] of 85%. For the same molecule, the half-life at 1 μM is 5.93 h in series [3] (pooled liver microsomes) and > 10 h in series [4] (human, hepatocytes). In addition, the hHEPs % remaining in series [4] (% remaining at 120 min) amounted to 100%.
With `Cc1ccccc1-n1ncc2c1COC[C@H]2NC(=O)c1ncn2c1CCCC2` [Ex-52, (S)—N-(1-(o-tolyl)-1,4,5,7-tetrahydropyrano[3,4-c]pyrazol-4-yl)-5,6,7,8-tetrahydroimidazo[1,5-a]pyridine-1-carboxamide], the IC50 in series [1] (setting [5]) and in series [2] was 10 to 100 nM each time. This molecule registered an HLM % remaining in series [3] of 84%. The half-life at 1 μM in series [3] (pooled liver microsomes) was 4.52 h; in series [4] (human, hepatocytes) it was > 10 h. Further, the hHEPs % remaining in series [4] (human, hepatocytes, 2 h) is given as 100%.
For `Cc1ccc(Cl)c(-n2ncc3c2COC[C@H]3NC(=O)c2ncn3c2CCCC3)c1` [Ex-53, (S)—N-(1-(2-chloro-5-methylphenyl)-1,4,5,7-tetrahydropyrano[3,4-c]pyrazol-4-yl)-5,6,7,8-tetrahydroimidazo[1,5-a]pyridine-1-carboxamide], the IC50 in series [1] (setting [5]) and in series [2] was 10 to 100 nM in each case. In series [3], the HLM % remaining was 96%. Moreover, the half-life at 1 μM in series [3] (pooled liver microsomes) was > 6.08 h; in series [4] (human, hepatocytes), > 10 h. Also, in series [4] (% remaining at 120 min), the hHEPs % remaining came to 99%.
Regarding `COc1ccccc1-n1ncc2c1COC[C@H]2NC(=O)c1ncn2c1CCCC2` [Ex-54, (S)—N-(1-(2-methoxyphenyl)-1,4,5,7-tetrahydropyrano[3,4-c]pyrazol-4-yl)-5,6,7,8-tetrahydroimidazo[1,5-a]pyridine-1-carboxamide], the 50% inhibitory concentration (IC50) in series [1] (setting [5]) and in series [2] was 10 to 100 nM throughout. Also, the HLM % remaining in series [3] was 92%. For the same molecule, the half-life at 1 μM was > 6.08 h in series [3] (pooled liver microsomes) and > 10 h in series [4] (human, hepatocytes). Moreover, the hHEPs % remaining in series [4] (% remaining at 120 min) is 100%.
Take `O=C(N[C@@H]1COCc2c1cnn2-c1ccccc1C(F)(F)F)c1ncn2c1CCCC2` [Ex-55, (S)—N-(1-(2-(trifluoromethyl)phenyl)-1,4,5,7-tetrahydropyrano[3,4-c]pyrazol-4-yl)-5,6,7,8-tetrahydroimidazo[1,5-a]pyridine-1-carboxamide]: the half-maximal inhibitory concentration (IC50) in series [1] (setting [5]) and in series [2] was 10 to 100 nM in each case. Also, in series [3], the HLM % remaining came out at 94%. Besides, the half-life at 1 μM in series [3] (pooled liver microsomes) was > 6.08 h; in series [4] (human, hepatocytes) it was > 10 h. Further, the hHEPs % remaining in series [4] (human, hepatocytes, 2 h) was 100%.
Turning to `Cc1cccc(F)c1-n1ncc2c1COC[C@H]2NC(=O)c1ncn2c1CCCC2` [Ex-58, (S)—N-(1-(2-fluoro-6-methylphenyl)-1,4,5,7-tetrahydropyrano[3,4-c]pyrazol-4-yl)-5,6,7,8-tetrahydroimidazo[1,5-a]pyridine-1-carboxamide], the IC50 in series [1] (setting [5]) and in series [2] was 10 to 100 nM throughout. The molecule further registered an HLM % remaining in series [3] of 87%. In addition, the half-life at 1 μM in series [3] (pooled liver microsomes) is 4.58 h; in series [4] (human, hepatocytes) it was > 10 h. In series [4] (% remaining at 120 min), this molecule had a hHEPs % remaining of 100%.
On to `O=C(N[C@@H]1COCc2c1cnn2-c1c(F)cccc1F)c1ncn2c1CCCC2` [Ex-59, (S)—N-(1-(2,6-difluorophenyl)-1,4,5,7-tetrahydropyrano[3,4-c]pyrazol-4-yl)-5,6,7,8-tetrahydroimidazo[1,5-a]pyridine-1-carboxamide], for which the IC50 in series [1] (setting [5]) and in series [2] was 10 to 100 nM each time. This molecule also yielded an HLM % remaining in series [3] of 91%. In addition, the half-life at 1 μM in series [3] (pooled liver microsomes) was > 6.08 h; in series [4] (human, hepatocytes), > 10 h. The same molecule showed a hHEPs % remaining in series [4] (% remaining at 120 min) of 100%.
In the case of `COc1cccc(C)c1-n1ncc2c1COC[C@H]2NC(=O)c1ncn2c1CCCC2` [Ex-61, (S)—N-(1-(2-methoxy-6-methylphenyl)-1,4,5,7-tetrahydropyrano[3,4-c]pyrazol-4-yl)-5,6,7,8-tetrahydroimidazo[1,5-a]pyridine-1-carboxamide], the IC50 in series [1] (setting [5]) and in series [2] was 10 to 100 nM each time. The molecule also had an HLM % remaining in series [3] of 94%. For the same molecule, the half-life at 1 μM in series [3] (pooled liver microsomes) is > 6.08 h; in series [4] (human, hepatocytes) it was > 10 h. The hHEPs % remaining in series [4] (% remaining at 120 min) is recorded as 100%.
